Six compounds from patent publication US11578074B2, “Nitrogenous heterocyclic compound, preparation method, intermediate, composition, and application” (SHANGHAI PHARMACEUTICALS HOLDING CO., LTD., priority 2017, dated 2023) can be followed below.

One series deals with T1, ErbB2 kinase (Homo sapiens, UniProt P04626).
T1 construct: The final concentration of ErbB2 kinase was 0.06 ng/μL
The series can be described thus: EGFR/ErbB2 enzymatic experiment (HTRF kinEASE-TK), ErbB2. It is filed as biochemical. Conditions: ErbB2 kinase 0.06 ng/μL, ATP 4 μM; read-out: Kinase IC50 (nM) in vitro ErbB2. On the procedure:
(§1) EGFR/ErbB2 Enzymatic Experiment
(§2) Firstly, 1× reaction buffer required for the kinase was prepared, then 5× Enzymatic buffer (HEPES 20 mM pH 7.0, NaN3 0.1%, BSA 0.05%, sodium orthovanadate 0.5 mM) was diluted in HTRF kinEASE-TK kit by 1 time with deionized water, and 50 nM Supplement Enzymatic buffer (SEB REAGENT), 1 mM MnCl2, 5 mM MfCl2, 1 mM DTT were added. Secondly, 5× compound was prepared, and 10 mM test compound storage solution was diluted in multiple steps with DMSO in a 96-well compound plate to prepare 100× compound as an initial concentration, which was then used as the first concentration to carry out a 3-fold gradient dilution with DMSO to obtain a total of 10 concentrations. Then 1 μL of gradient diluent was added to 19 μL of 1× reaction buffer to prepare 5× compound for later use. Then 2 μL of 5× compound was transferred from the 96-well plate into a 384-well plate. To the compound-free control wells was added 2 μL of the following liquid: 19 μL of 1× reaction buffer with addition of 1 μL of DMSO. To the blank control well was added 2 μL of 250 mM EDTA. […] In the fourth step of reaction termination, HTRF Detection buffer was used to prepare a mixture of 2×TK Antibody-EU (K) and Sa-XL665, and the amount of TK Antibody-EU (K) was 5 μL per well. After the enzyme reaction was carried out for 30 minutes, 10 μL of the above liquid was added to a 384-well plate, and the reaction was carried out at room temperature for 1 hour. […] RFU665 nM and RFU620 nM were measured, and RFU665 nM/RFU620 nM×10000 was used as final data for analysis.

The test system of series [1] is BT-474 (human breast cancer cell). In words: In vitro proliferation inhibition assay of cell lines (CellTiter-Glo), BT-474. The class given is cell-based. As to conditions: BT-474 cells, 72 hours. On the procedure:
(§3) In Vitro Proliferation Inhibition Assay of Cell Lines
1. […] 2. Dosing to the cells: on the second day of the experiment, the microplate was taken out from the incubator, and 10 μL of 10× compound was added to each well of the microplate, setting 2 duplicate wells for each drug concentration and 9 dosing concentrations for each compound. According to different cell lines, the initial concentration of each compound was different. Upon completion of addition, the microplate was placed under the conditions of 37° C. and 5% CO2 for 72 hours. 3. Data acquisition: the microplate was taken out from the incubator and was allowed to equilibrate at room temperature for 30 minutes. 100 μL of CellTiter-Glo® Luminescent Cell Viability Assay reaction solution which had been equilibrated at room temperature was added to each well, and the reaction solution was shaken at 1300 rpm for 2 minutes at room temperature. After that, the microplate was placed in HERAEUS Multifuge X1R centrifuge, centrifuged at 2000 rpm for 1 minute, and allowed to equilibrate at room temperature for 10 minutes. The fluorescence signal value was measured on EnVision™.

The target in the next series is T2, CYP2D6 (Homo sapiens, UniProt P10635).
T2 construct: A system of 100 μL human liver microsomes; from tissue; host or cells: human liver microsomes
T2 sequence (P10635 whole entry): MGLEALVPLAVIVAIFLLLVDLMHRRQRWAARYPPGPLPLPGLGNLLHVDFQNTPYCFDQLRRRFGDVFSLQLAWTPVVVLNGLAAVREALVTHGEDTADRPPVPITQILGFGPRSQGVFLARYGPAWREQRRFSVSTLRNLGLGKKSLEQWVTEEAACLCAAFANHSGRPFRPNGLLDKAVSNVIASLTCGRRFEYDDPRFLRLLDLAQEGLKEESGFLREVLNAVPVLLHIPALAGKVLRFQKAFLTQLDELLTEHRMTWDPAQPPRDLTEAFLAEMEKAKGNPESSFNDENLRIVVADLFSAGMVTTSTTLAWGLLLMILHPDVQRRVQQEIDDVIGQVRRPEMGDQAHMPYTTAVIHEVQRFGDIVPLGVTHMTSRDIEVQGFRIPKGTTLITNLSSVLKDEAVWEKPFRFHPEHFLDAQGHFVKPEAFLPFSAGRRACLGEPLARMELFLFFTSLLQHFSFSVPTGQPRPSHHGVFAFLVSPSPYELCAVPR
The series can be described thus: Direct inhibition (DI) of CYP2D6 in human liver microsomes. It is filed as in vitro ADME. Conditions: probe Dextromethorphan, human liver microsomes 0.2 mg/mL, 10 μM compound, read-out: Direct inhibition (DI) 2D6 (Dextromethorphan). As for the experimental part:
(§4) Study on Direct Inhibition (DI) of CYP3A4, CYP2D6, CYP2C9, CYP2C19, CYP1A2
(§5) A system of 100 μL human liver microsomes (final concentration: 0.2 mg/mL) was used for direct inhibition under warm incubation. The system contained NADPH (final concentration: 1 mM), 10 μM compound, a positive inhibitor cocktail (Ketoconazole 10 μM, Quinidine: 10 μM, Sulfaphenazole: 100 μM, Naphthoflavone: 10 μM, Tranylcypromene 1000 μM), a negative control 10 μM DMSO and mixed probe substrates (Midazolam 10 μM, Testosterone 100 μM, Dextromethophan 10 μM, Diclofenac 20 μM, Phenetin 100 μM, Mephenytoin 100 μM). The reaction was terminated after incubation for 20 minutes. The relative activity of the enzymes was calculated by measuring the relative production of metabolites.

For another series, the target named is EGFR kinase (Homo sapiens, UniProt P00533). In words: EGFR/ErbB2 enzymatic experiment (HTRF kinEASE-TK), EGFR. It is filed as biochemical. As to conditions: EGFR kinase 0.06 units/μL, ATP 1.65 μM; read-out: Kinase IC50 (nM) in vitro EGFR. As for the experimental part:
as §1, §2

For the next series, the target named is T3, CYP1A2 (Homo sapiens, UniProt P05177).
T3 construct: A system of 100 μL human liver microsomes; from tissue; host or cells: human liver microsomes
T3 sequence (P05177 1-516): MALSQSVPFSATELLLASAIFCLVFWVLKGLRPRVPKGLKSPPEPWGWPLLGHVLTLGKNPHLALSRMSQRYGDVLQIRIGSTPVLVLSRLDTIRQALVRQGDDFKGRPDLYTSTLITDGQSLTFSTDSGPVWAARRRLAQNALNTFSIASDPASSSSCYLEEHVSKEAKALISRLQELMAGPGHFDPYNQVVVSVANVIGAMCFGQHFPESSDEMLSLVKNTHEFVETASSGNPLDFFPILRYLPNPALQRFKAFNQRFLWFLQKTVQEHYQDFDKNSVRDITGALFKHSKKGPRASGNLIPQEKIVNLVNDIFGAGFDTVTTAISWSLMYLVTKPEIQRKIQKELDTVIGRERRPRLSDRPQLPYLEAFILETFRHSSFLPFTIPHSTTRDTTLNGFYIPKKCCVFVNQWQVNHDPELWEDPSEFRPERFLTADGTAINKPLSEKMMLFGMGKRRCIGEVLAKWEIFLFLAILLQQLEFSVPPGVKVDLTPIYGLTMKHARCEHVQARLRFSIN
The series can be described thus: Direct inhibition (DI) of CYP1A2 in human liver microsomes. It is filed as in vitro ADME. Conditions: probe Phenacetin, human liver microsomes 0.2 mg/mL, 10 μM compound, read-out: Direct inhibition (DI) 1A2 (Phenacetin). As for the experimental part: as §4, §5

In the next series the target is T4, CYP3A4 (Homo sapiens, UniProt P08684).
T4 construct: A system of 100 μL human liver microsomes; from tissue; host or cells: human liver microsomes
T4 sequence (P08684 whole entry): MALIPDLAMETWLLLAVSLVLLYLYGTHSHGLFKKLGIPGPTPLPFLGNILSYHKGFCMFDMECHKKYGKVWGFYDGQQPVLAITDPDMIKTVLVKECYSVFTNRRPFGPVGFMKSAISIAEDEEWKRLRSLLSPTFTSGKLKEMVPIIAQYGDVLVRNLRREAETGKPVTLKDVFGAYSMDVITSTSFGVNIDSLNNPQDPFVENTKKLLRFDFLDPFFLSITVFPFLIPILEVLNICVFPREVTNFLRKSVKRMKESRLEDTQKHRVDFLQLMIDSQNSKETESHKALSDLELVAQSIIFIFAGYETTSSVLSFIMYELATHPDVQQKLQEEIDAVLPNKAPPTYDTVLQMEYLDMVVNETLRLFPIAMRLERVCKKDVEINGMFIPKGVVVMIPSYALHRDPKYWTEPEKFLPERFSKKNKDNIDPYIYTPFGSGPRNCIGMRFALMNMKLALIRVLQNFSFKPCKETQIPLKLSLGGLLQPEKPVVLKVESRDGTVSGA
In words: Direct inhibition (DI) of CYP3A4 in human liver microsomes. It is filed as in vitro ADME. Conditions: human liver microsomes 0.2 mg/mL, 10 μM compound. As for the experimental part: as §4, §5

Series [2] deals with N87 (human gastric cancer cell NCI-N87). The series can be described thus: In vitro proliferation inhibition assay of cell lines (CellTiter-Glo), N87. The class given is cell-based. Conditions: N87 cells, 72 hours. As for the experimental part: as §3
1. Cell culture and inoculation: on the first day of the experiment, normal cultured cells were taken, and in the exponential growth state, after digestion and dispersion, the cell density was then adjusted to 8.8×10^4 cells/mL for BT-474, and 6.6×10^4 cells/mL for N87, and 90 μL of which were inoculated to each well of a 96-well cell culture plate; after the inoculation was completed, the microplate was cultured under the conditions of 37° C. and 5% CO2 overnight. 2. Dosing to the cells: on the second day of the experiment, the microplate was taken out from the incubator, and 10 μL of 10× compound was added to each well of the microplate, setting 2 duplicate wells for each drug concentration and 9 dosing concentrations for each compound. According to different cell lines, the initial concentration of each compound was different. Upon completion of addition, the microplate was placed under the conditions of 37° C. and 5% CO2 for 72 hours. 3. Data acquisition: the microplate was taken out from the incubator and was allowed to equilibrate at room temperature for 30 minutes. 100 μL of CellTiter-Glo® Luminescent Cell Viability Assay reaction solution which had been equilibrated at room temperature was added to each well, and the reaction solution was shaken at 1300 rpm for 2 minutes at room temperature. After that, the microplate was placed in HERAEUS Multifuge X1R centrifuge, centrifuged at 2000 rpm for 1 minute, and allowed to equilibrate at room temperature for 10 minutes. The fluorescence signal value was measured on EnVision™.

The next series deals with T5, CYP2C9 (Homo sapiens, UniProt P11712).
T5 construct: A system of 100 μL human liver microsomes; from tissue; host or cells: human liver microsomes
T5 sequence (P11712 whole entry): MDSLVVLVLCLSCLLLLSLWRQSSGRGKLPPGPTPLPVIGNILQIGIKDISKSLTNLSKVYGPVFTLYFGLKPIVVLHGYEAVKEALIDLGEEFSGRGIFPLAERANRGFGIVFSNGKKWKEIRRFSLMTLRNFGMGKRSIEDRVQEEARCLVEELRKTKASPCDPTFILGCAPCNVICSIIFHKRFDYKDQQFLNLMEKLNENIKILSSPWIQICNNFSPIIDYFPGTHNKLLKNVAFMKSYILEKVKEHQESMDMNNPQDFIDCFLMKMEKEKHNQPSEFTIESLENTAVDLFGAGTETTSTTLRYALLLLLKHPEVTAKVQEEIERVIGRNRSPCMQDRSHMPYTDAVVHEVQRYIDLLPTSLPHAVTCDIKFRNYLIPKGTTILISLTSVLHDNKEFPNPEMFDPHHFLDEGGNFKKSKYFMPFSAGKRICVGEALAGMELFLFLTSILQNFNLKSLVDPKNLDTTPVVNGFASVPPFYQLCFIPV
The series can be described thus: Direct inhibition (DI) of CYP2C9 in human liver microsomes. Conditions: probe Diclofenac, human liver microsomes 0.2 mg/mL, 10 μM compound, read-out: Direct inhibition (DI) 2C9 (Diclofenac). The class given is in vitro ADME. On the procedure:
as §4, §5

The next series has as its target T6, CYP2C19 (Homo sapiens, UniProt P33261).
T6 construct: A system of 100 μL human liver microsomes; from tissue; host or cells: human liver microsomes
In words: Direct inhibition (DI) of CYP2C19 in human liver microsomes. It is filed as in vitro ADME. Conditions: probe Mephenytoin, human liver microsomes 0.2 mg/mL, 10 μM compound, read-out: Direct inhibition (DI) 2C19 (Mephenytoin). On the procedure:
as §4, §5

The mark [3] stands for this setting: probe Midazolam, read-out: Direct inhibition (DI) 3A4 (Midazolam).
The mark [4] stands for this setting: probe Testosterone, read-out: Direct inhibition (DI) 3A4 (testosterone).

Read-outs that look alike come from different tables or passages of the source.

EGFR kinase, sequence (P00533 25-1210): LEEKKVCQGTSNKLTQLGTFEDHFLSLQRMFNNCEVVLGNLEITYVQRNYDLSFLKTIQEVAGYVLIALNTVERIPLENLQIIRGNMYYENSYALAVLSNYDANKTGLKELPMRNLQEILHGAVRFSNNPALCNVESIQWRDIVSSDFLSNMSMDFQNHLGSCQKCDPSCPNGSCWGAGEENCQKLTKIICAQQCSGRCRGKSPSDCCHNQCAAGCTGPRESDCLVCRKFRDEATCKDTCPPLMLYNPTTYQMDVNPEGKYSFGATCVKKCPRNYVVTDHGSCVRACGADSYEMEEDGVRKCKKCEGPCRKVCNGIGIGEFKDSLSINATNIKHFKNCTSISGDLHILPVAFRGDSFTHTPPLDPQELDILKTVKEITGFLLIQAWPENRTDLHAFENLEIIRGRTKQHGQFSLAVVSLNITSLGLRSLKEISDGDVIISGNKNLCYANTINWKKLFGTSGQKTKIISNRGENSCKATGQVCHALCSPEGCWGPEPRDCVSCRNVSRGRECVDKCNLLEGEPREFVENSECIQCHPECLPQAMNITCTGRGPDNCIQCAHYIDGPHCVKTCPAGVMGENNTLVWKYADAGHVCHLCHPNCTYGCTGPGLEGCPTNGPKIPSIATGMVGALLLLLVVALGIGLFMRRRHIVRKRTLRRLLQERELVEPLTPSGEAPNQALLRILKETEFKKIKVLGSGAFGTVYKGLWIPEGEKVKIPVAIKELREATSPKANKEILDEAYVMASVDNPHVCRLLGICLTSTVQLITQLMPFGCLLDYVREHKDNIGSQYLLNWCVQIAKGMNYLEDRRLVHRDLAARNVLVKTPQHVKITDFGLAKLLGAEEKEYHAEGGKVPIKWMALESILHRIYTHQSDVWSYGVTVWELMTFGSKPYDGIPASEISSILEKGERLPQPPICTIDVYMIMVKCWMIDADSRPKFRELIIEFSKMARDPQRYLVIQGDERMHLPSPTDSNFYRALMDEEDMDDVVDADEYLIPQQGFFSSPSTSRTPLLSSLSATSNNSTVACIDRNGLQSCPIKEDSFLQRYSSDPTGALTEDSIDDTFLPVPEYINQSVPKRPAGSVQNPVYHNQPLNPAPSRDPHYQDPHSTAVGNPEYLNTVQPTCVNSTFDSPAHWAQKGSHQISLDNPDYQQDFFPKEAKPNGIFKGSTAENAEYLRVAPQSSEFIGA
T1 sequence (P04626 23-1255): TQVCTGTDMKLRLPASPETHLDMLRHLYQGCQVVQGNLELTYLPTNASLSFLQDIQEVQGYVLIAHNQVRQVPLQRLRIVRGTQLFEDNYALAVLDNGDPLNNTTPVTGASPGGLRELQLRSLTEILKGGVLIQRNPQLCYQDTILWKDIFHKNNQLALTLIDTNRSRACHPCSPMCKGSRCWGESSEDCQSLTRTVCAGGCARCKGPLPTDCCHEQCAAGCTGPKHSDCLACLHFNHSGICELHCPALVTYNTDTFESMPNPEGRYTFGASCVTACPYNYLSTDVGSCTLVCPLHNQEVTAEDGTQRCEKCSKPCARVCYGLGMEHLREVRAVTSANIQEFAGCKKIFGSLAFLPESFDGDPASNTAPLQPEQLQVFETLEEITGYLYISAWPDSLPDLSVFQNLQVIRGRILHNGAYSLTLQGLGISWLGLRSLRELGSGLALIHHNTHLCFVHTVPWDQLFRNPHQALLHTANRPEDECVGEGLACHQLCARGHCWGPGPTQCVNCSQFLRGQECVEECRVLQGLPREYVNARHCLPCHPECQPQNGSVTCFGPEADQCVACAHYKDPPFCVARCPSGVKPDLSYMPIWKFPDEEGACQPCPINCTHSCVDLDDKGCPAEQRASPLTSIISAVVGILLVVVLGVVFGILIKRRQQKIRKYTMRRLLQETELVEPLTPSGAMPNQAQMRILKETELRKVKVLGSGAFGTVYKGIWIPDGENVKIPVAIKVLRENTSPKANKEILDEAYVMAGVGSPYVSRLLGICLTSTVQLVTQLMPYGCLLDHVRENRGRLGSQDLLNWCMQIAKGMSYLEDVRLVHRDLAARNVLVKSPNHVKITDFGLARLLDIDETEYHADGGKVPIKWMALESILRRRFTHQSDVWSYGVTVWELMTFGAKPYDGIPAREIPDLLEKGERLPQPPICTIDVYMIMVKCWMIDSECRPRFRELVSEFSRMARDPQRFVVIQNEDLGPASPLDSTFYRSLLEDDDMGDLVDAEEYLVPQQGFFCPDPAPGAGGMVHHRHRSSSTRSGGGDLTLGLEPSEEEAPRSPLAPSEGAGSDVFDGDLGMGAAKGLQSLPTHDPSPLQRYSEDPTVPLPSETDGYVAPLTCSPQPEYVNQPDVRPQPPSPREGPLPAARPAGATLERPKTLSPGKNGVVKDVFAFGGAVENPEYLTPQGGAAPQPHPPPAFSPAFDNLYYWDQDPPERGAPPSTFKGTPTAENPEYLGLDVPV
T6 sequence (P33261 whole entry): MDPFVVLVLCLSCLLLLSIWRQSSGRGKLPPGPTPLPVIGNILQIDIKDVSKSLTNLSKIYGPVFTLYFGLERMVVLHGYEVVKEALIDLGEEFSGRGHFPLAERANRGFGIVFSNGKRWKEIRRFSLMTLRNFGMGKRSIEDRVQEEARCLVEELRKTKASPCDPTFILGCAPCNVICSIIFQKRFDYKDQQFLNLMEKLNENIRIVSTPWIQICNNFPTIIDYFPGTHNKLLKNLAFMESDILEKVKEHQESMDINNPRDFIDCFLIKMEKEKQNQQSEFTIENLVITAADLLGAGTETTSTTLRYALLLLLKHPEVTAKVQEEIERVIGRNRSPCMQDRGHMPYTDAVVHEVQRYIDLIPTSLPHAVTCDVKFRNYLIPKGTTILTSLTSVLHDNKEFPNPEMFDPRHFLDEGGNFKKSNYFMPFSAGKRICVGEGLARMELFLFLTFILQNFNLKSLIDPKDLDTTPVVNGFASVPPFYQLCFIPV

For `C=CC(=O)NC1CCC=C(c2ccc3ncnc(Nc4ccc(Oc5cc6nncn6cn5)c(C)c4)c3c2)C1` (stereo not drawn) [Final product of Embodiment 1, N-(3-(4-((4-([1,2,4]triazolo[4,3-c]pyrimidin-7-yloxy)-3-methylphenyl)amino)quinazolin-6-yl)cyclohex-3-en-1-yl)acrylamide], the half-inhibitory concentration (IC50) stood at 0.947 nM at ErbB2 kinase, 5.07 nM in series [1], 14.4 nM on EGFR kinase and 4.45 nM in [2]. Also, the inhibition at 20 min, 10 µM at CYP2D6 is 25%; at CYP1A2, 47%; at CYP3A4 (setting [3]), 91%; at CYP3A4 (setting [4]) it was 94%; on CYP2C9, 74%; at CYP2C19, 37%.
Take `C=CC(=O)N[C@@H]1CCCN(c2ccc3ncnc(Nc4ccc(Oc5cc6nncn6cn5)c(C)c4)c3c2)C1` [Final product of Embodiment 3, (R)—N-(1-(4-((4-([1,2,4]triazolo[4,3-c]pyrimidin-7-yloxy)-3-methylphenyl)amino)quinazolin-6-yl)piperidin-3-yl) acrylamide]: the IC50 at ErbB2 kinase amounted to 3.83 nM; in [1], 15.3 nM; at EGFR kinase, 24.3 nM; in series [2], 15.6 nM. Besides, the inhibition at 20 min, 10 µM came out at 4% at CYP2D6; 14% at CYP1A2; 54% on CYP3A4 (setting [3]); 61% on CYP3A4 (setting [4]); 26% at CYP2C9; 9% on CYP2C19.
For `C=CC(=O)N1CCC(c2ccc3ncnc(Nc4ccc(Oc5cc6nncn6cn5)c(C)c4)c3c2)CC1` [Final product of Embodiment 4, 1-(4-(4-((4-([1,2,4]triazolo[4,3-c]pyrimidin-7-yloxy)-3-methylphenyl)amino)quinazolin-6-yl)piperidin-1-yl)propan-2-en-1-one], the IC50 came out at 6.09 nM on ErbB2 kinase, 4.79 nM in [1], 168 nM on EGFR kinase and 5.75 nM in series [2]. The inhibition at 20 min, 10 µM was 7% at CYP2D6; less than 0% on CYP1A2; 49% on CYP3A4 (setting [3]); 56% on CYP3A4 (setting [4]); 48% on CYP2C9; 23% on CYP2C19.
For `C=CC(=O)N[C@H]1CCCN(c2ccc3ncnc(Nc4ccc(Oc5cc6nncn6cn5)c(C)c4)c3c2)C1` [Final product of Embodiment 5, (S)—N-(1-(4-((4-([1,2,4]triazolo[4,3-c]pyrimidin-7-yloxy)-3-methylphenyl)amino)quinazolin-6-yl)piperidin-3-yl)acrylamide], the half-inhibitory concentration (IC50) on ErbB2 kinase came out at 2.04 nM; in [1], 14.4 nM; at EGFR kinase, 62.1 nM; in series [2] it was 20.1 nM. Moreover, the inhibition at 20 min, 10 µM was found to be 14% at CYP2D6; 9% at CYP1A2; 71% on CYP3A4 (setting [3]); 74% at CYP3A4 (setting [4]); 49% at CYP2C9; 18% at CYP2C19.
In the case of `C=C(F)C(=O)N1CC=C(c2ccc3ncnc(Nc4ccc(Oc5cc6nncn6cn5)c(C)c4)c3c2)CC1` [Final product of Embodiment 6, 1-(4-(4-((4-([1,2,4]triazolo[4,3-c]pyrimidin-7-yloxy)-3-methylphenyl)amino)quinazolin-6-yl)-5,6-dihydropyridin-1(2H)-yl)-2-fluoropropyl-2-en-1-one], the IC50 on ErbB2 kinase was determined as 2.92 nM; in [1] it was 16.1 nM; on EGFR kinase it was 233 nM; in series [2], 24 nM. The inhibition at 20 min, 10 µM on CYP2D6 came out at 30%; at CYP1A2, 13%; on CYP3A4 (setting [3]) it was 72%; on CYP3A4 (setting [4]), 80%; at CYP2C9, 55%; at CYP2C19, 41%.
Take `Cc1cc(Nc2ncnc3ccc(NC(=O)/C=C/[C@H]4CCCN4C)cc23)ccc1Oc1ccc2nccn2n1` [Final product of Embodiment 10]: the concentration for half-maximal inhibition (IC50) on ErbB2 kinase is 1.34 nM; in series [1], 4.56 nM; on EGFR kinase, 4.62 nM; in series [2], 3.52 nM. The inhibition at 20 min, 10 µM is 46% on CYP2D6; 14% at CYP1A2; 12% on CYP3A4 (setting [3]); 29% at CYP3A4 (setting [4]); less than 0% on CYP2C9; 9% at CYP2C19.
